Test results from patent US6838436B1, “Inhibitors of proteasomal activity for stimulating bone growth” (Osteoscreen Inc., priority 1998, dated 2005).
Like-named read-outs stand apart in the source and are kept apart here. Where a SMILES comes first, the peptide text is derived from it. [ ]: non-standard residue; d: D form. Nle = CCCC[C@H](N)C(=O)O

Key:
mouse BMP2 promoter = assay: High throughput screen (ABA assay): BMP2 promoter-luciferase reporter in 2T3-BMP-2-LUC osteoblast cells; format: cell-based; conditions: for EC50: Mus musculus, Osteoblast, read-out: Luciferase Activity (ED50-μM)
Description: 1995, the entire contents of which are incorporated herein by reference. This assay is also described as a portion of a study of immortalized murine osteoblasts (derived from a mouse expressing a transgene composed of a BMP2 promoter driving expression of T-antigen) in Ghosh-Choudhery, N., et al., Endocrinology (1996) 137:331-39. In this study, the immortalized cells were stably transfected with a plasmid containing a luciferase reporter gene driven by a mouse BMP2 promoter (−2736/114 bp), and responded in a dose-dependent manner to recombinant human BMP2.
Briefly, the assay utilizes cells transformed permanently or transiently with constructs in which the promoter of a bone morphogenetic protein, specifically BMP2 or BMP4, is coupled to a reporter gene, typically luciferase. These transformed cells are then evaluated for the production of the reporter gene product; compounds that activate the BMP promoter will drive production of the reporter protein, which can be readily assayed. Many thousands of compounds have been subjected to this rapid screening technique, and only a very small percentage are able to elicit a level of expression of reporter gene 5-fold greater than that produced by vehicle. […] The active compounds (“BMP promoter-active compounds” or “active compounds”) are useful in promoting bone or cartilage growth, and thus in the treatment of vertebrates in need of bone or cartilage growth.
Thousands of compounds have been tested in the assay system set forth in U.S. Ser. No. 08/458,434, filed 2 Jun. 1995, and incorporated herein by reference. […] In this screen, the standard positive control was the compound 59-0008 (also denoted “OS8”), which is of the formula: [drawing 22]
In more detail, the 2T3-BMP-2-LUC cells, a stably transformed osteoblast cell line described in Ghosh-Choudhury et al. Endocrinology (1996) 137:331-39, referenced above, was employed. The cells were cultured using α-MEM, 10% FCS with 1% penicillin/streptomycin and 1% glutamine (“plating medium”), and were split 1:5 once per week. For the assay, the cells were resuspended in a plating medium containing 4% FCS, plated in microtiter plates at a concentration of 5×10^3 cells (in 50 μl)/well, and incubated for 24 hours at 37° C. in 5% CO2. To initiate the assay, 50 μl of the test compound or the control in DMSO was added at 2× concentration to each well, so that the final volume was 100 μl. The final serum concentration was 2% FCS, and the final DMSO concentration was 1%. Compound 59-0008 (10 μM) was used as a positive control.
The treated cells were incubated for 24 hours at 37° C. and 5% CO2. The medium was then removed, and the cells were rinsed three times with PBS. After removal of excess PBS, 25 μl of 1× cell culture lysing reagent (Promega #E153A) was added to each well and incubated for at least ten minutes. Optionally, the plates/samples could be frozen at this point. To each well was added 50 μl of luciferase substrate (Promega #E152A; 10 ml Promega luciferase assay buffer per 7 mg Promega luciferase assay substrate). Luminescence was measured on an automated 96-well luminometer, and was expressed as either picograms of luciferase activity per well or as picograms of luciferase activity per microgram of protein.
Accordingly, other tested compounds can be evaluated at various concentrations, and the results compared to the results obtained for 59-0008 at 10 μM (which value would be normalized to 100). Alternatively, the reactivity of a compound to be tested can be compared directly to a negative control containing no compound.

hair follicles = assay: Induction of anagen in hair follicles in vivo (Example 12); parameters: species or system C57 black mice
Procedure: Inhibitors of the proteasomal chymotrypsin-like activity were treated for their capacity to induce transit of hair follicles into anagen in vivo in C57 black mice eight weeks of age.

proteasomal activity = conditions: cited from earlier work
neonatal mouse calvaria = assay: Neonatal mouse calvaria assay (in vitro / ex vivo) for bone formation; format: cell-based, ICR Swiss white mouse; conditions: for EC50: Mus musculus, read-out: Bone Formation (ED50-μM)
Procedure: An assay for bone resorption or bone formation is similar to that described by Gowen M. & Mundy G., J Immunol (1986) 136:2478-82. Briefly, four days after birth, the front and parietal bones of ICR Swiss white mouse pups are removed by microdissection and split along the sagittal suture. In an assay for resorption, the bones are incubated in BGJb medium (Irvine Scientific, Santa Ana, Calif.) plus 0.02% (or lower concentration) β-methylcyclodextrin, wherein the medium also contains test or control substances. The medium used when the assay is conducted to assess bone formation is Fitton and Jackson Modified BGJ Medium (Sigma) supplemented with 6 μg/ml insulin, 6 μg/ml transferrin, 6 ng/ml selenous acid, calcium and phosphate concentrations of 1.25 and 3.0 mM, respectively, and ascorbic acid to a concentration of 100 μg/ml is added every two days. The incubation is conducted at 37° C. in a humidified atmosphere of 5% CO2 and 95% air for 96 hours.
Following this, the bones are removed from the incubation media and fixed in 10% buffered formalin for 24-48 hours, decalcified in 14% EDTA for 1 week, processed through graded alcohols; and embedded in paraffin wax. Three […] sections of the calvaria are prepared. Representative sections are selected for histomorphometric assessment of bone formation or bone resorption. Bone changes are measured on sections cut 200 μm apart. Osteoblasts and osteoclasts are identified by their distinctive morphology.
Selected compounds and appropriate controls were assayed in vitro (ex vivo) for bone formation activity (described above in “Techniques for Neonatal Mouse Calvaria Assay (in vitro)). Histomorphometrical assessments of ex vivo calvaria were carried out using an OsteoMetrics bone morphometry measurement program, according to the manufacturer's instructions. Measurements were determined using either a 10- or 20-fold objective with a standard point counting eyepiece graticule.
New bone formation was determined (using a 10× objective) by measuring the new bone area formed in one field in 3 representative sections of each bone (4 bones per group). Each measurement was carried out ½ field distance from the end of the suture. Both total bone and old bone area were measured. Data were expressed as new bone area in μm^2.
Osteoblast numbers are determined by point counting. The number of osteoblast cells lining the bone surface on both sides of the bone are counted in one field using a 20× objective. Data are expressed as osteoblast numbers/mm of bone surface. […]

[1] = tested on: hair follicles of skin explants; assay: Cultured skin explants from 5 day old mice, hair follicle diameter and elongation (Example 11); format: cell-based, C3H/HeS1c mice; conditions: 10 μM; 72 hours
Procedure: Cultured skin explants from 5 day old mice cultured for 72 hours were treated with proteasome inhibitors, non-proteasomal proteases and non-proteasomal inhibitors of NF-κB and effects on hair follicle diameter and follicle elongation were determined according to the method of Kamiya, T., et al., J Derm Sci (1998) 17:54-60. Skin slices from the dorsal skin of 5 day old C3H/HeS1c mice were cultured in 1 ml of αMEM and 0.1% BSA for 72 hours and then assessed for changes in hair follicle diameter and hair elongation under an inverted microscope, using image analysis. […] Thus, the chymotrypsin-like activity of the proteasome is the catalytic component of the proteasome that is responsible for the effects of these compounds on hair follicle differentiation and hair growth. Only proteasome inhibitors had discernable effects on these parameters.

[2] = molecular target: T1, 20S thermophila proteasome (Methanosarcina thermophila, UniProt Q9P992); assay: biochemical
T1 construct: purchased CalBiochem, San Diego, Calif
T1 sequence (Q9P992 10-210): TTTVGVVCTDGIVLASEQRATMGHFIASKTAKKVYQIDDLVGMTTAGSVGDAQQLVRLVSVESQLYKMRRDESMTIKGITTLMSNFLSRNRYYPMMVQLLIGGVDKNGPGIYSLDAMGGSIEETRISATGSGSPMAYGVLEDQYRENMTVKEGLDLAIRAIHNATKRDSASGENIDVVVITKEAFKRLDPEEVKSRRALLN
T1 sequence (Q59565 1-247 partner): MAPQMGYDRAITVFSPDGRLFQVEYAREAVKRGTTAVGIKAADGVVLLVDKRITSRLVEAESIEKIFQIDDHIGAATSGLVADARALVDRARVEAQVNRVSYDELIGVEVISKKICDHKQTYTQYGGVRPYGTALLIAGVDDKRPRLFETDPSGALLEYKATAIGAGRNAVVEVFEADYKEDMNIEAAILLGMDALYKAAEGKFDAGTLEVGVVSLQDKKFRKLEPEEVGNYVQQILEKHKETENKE
Procedure: The assay involves incubating the potential inhibitor with 20S thermophila proteasomes which, in purified form, are commercially available, with a fluorogenic peptide substrate. The presence of an inhibitor will reduce the amount of fluorescence generated by the action of the proteasome fraction on the fluorogenic peptide. This assay is described in further detail in Coux, O., et al., N Rev Biochem (1996) 65:801; Adams, J., et al., Cancer Res (1999) 59:2615; and Craiu, A., et al., J Biol Chem (1997) 272:13437. Further reports are set forth in Hilt, W., et al., Trans Biochem Sci (1996) 21:96; Peters, J., Trends Biochem Sci (1994) 19:377; Maupin-Furlow, J. A., et al., J Biol Chem (1995) 270:28617; and Jensen, T. J., et al., Cell (1995) 83:129. Fluorogenic substrates and purified proteasomes are available, for example, from CalBiochem, San Diego, Calif.
Purified 20S thermophila proteasomes and the fluorogenic peptide substrate Suc-Leu-Leu-Val-Tyr-AMC (SEQ ID NO:3) are available from CalBiochem, San Diego, Calif. Briefly, serial dilutions of the inhibitor to be tested were mixed with proteasome solution at a concentration of proteasome of 0.01 mg/ml. After 30 min incubation at 37° C., substrate solution at a final concentration of 25-30 μg/ml was added and the mixture incubated at 37° C. and then read at 15 min, 30 min, and 60 min in a Fluoroscan instrument. The percentage diminution in fluorescence in the presence as compared to the absence of inhibitor is then calculated.

[3] = read-out: Proteasome Activity (ED50-μM)

In the case of COc1cc(/C=C/C(=O)CC(=O)/C=C/c2ccc(O)c(OC)c2)ccc1O [curcumin], the “activity in the ABA assay compared with proteasome inhibitors” value (mouse BMP2 promoter) is reported as “less active”.

For O=C(NC1=CC(=O)c2ccccc2C1=O)c1ccccc1 [PPM-18, 2-benzoylamino-1,4-naphthoguinone], the “effect on hair follicles” value (hair follicles; dose not given) is listed as “had no effect on hair follicles” and the “effects on proteasomal activity” value (proteasomal activity) is listed as “no effects on proteasomal activity”.

With C=C(C)[C@]12C[C@@H](C)[C@@]34O[C@](Cc5ccccc5)(O[C@@H]1[C@@H]3C=C(COC(=O)Cc1ccc(O)c(OC)c1)C[C@]1(O)C(=O)C(C)=C[C@@H]41)O2 [resiniferatoxin] the “activity in the ABA assay compared with proteasome inhibitors” value (mouse BMP2 promoter) was “less active”.

For CC[C@H](CO)Nc1nc(NCc2ccccc2)c2ncn(C(C)C)c2n1 [roscovitine], the “response in the high throughput luciferase screen” value (shortened to “response”) (mouse BMP2 promoter) was “do not give promising responses”, the “new bone formation in the in vitro calvarial assay” value (neonatal mouse calvaria) was “appeared negative” and the “effect on follicle growth” value [1] was “did not significantly affect follicle growth”.

With CC(=O)CCCCn1c(=O)c2c(ncn2C)n(C)c1=O [PTX, pentoxyfilline] the “lowest concentration enhancing new bone formation (as low as)” value (neonatal mouse calvaria) was 0.1 μm, the “new bone formation in the in vitro calvarial assay” value (neonatal mouse calvaria) was “active” and the “increase of new bone area” value (neonatal mouse calvaria; 100 μm) was ~3 times that of control. For the same compound, the “enhancement of new bone area over control” value (neonatal mouse calvaria; concentration of 10 μm) was “over 100%”.

Compound CSCCC(C=O)NC(=O)C(CC(C)C)NC(=O)C(CC(C)C)NC(C)=O (stereo not drawn) [N-Acetyl-Leu-Leu-Meth-CHO, N-Acetyl-Leu-Leu-Met-CHO] (Ac-Leu-Leu-Met-aldehyde; configuration not given here) has an EC50 [2] of 4 µM.

In the case of CCCC[C@@H](C=O)NC(=O)[C@H](CC(C)C)NC(=O)[C@H](CC(C)C)NC(C)=O [ALLN, N-Acetyl-Leu-Leu-Nle-CHO] (Ac-Leu-Leu-[Nle]-aldehyde), the EC50 (mouse BMP2 promoter) is reported as 10 µM, the EC50 [2, 3] is reported as 1.5 µM and the “effect on hair follicles” value (hair follicles; dose not given) is reported as “had no effect on hair follicles”. The “effects on proteasomal activity” value (proteasomal activity) was “no effects on proteasomal activity”.

In the case of COc1cc(CNC(=O)CCCC/C=C/C(C)C)ccc1O [Capsaicin], the “activity in the ABA assay compared with proteasome inhibitors” value (mouse BMP2 promoter) is reported as “less active”, the “response” value (mouse BMP2 promoter) is reported as “do not give promising responses” and the “new bone formation in the in vitro calvarial assay” value (neonatal mouse calvaria) is reported as “appeared negative”. It also gave an EC50 [2] of 30 µM.

For c1ccc(N=NC2=NNc3ccccc3S2)cc1 [59-0008, 3-phenylazo-1H-4,1,2-benzothiadiazine], the “concentration of maximal reactivity” value (mouse BMP2 promoter) was 3 to 10 µM.

Work on CC(C)C[C@H](NC(=O)[C@H](CC(C)C)NC(=O)[C@H](CC(C)C)NC(=O)OCc1ccccc1)B(O)O [MG262] yielded an EC50 (mouse BMP2 promoter) of 0.1 µM, an EC50 (neonatal mouse calvaria; calvarial assay in vitro) of 0.1 µM and an EC50 [2, 3] of 0.07 µM.

For CN1C(=O)C23CC4=CC=C[C@H](O)C4N2C(=O)C1(CO)SS3 (some centres unmarked) [Gliotoxin], the “response” value (mouse BMP2 promoter) was “do not give promising responses”, the “new bone formation in the in vitro calvarial assay” value (neonatal mouse calvaria) was “did demonstrate the ability to stimulate bone growth” and the EC50 (neonatal mouse calvaria) was 10 µM.

For CC[C@H](C)C(=O)O[C@H]1C[C@@H](C)C=C2C=C[C@H](C)[C@H](CC[C@@H]3C[C@@H](O)CC(=O)O3)[C@H]21 [lovastatin], the “effect on hair follicles” value (hair follicles; injected locally into the subcutaneous tissue in sufficient concentrations to cause local periosteal bone formation) is listed as “had no effect on hair follicles” and the “effects on proteasomal activity” value (proteasomal activity) is listed as “no effects on proteasomal activity”.
